Laboratory results published in publication PMC6747051, “Screening of Antiviral Components of Ma Huang Tang and Investigation on the Ephedra Alkaloids Efficacy on Influenza Virus Type A” (Frontiers in Pharmacology, 2019).
Converted amounts (≈) assume the structure as drawn. “Also recorded” adds a separate entry of the source.

Assays:
influenza A virus [1] = assay: microbe, parasite or virus in culture; conditions: MDCK, 48 h, read-out: Cell survival rate
[2] = system: influenza A virus (A PR/8/34); assay: HE assay of lung tissue of infected mice; type: in vivo, ICR mice; conditions: days 3 and 7 post-infection, 40, 20, 10 mg/kg
Method: (§1) A total of 108 ICR mice were randomly divided into the control uninfected group, the control infected group, oseltamivir group, LEP-treated groups and DPEP-treated groups; 12 mice were designed in each group. Except for the mice in the control uninfected group, others were anaesthetized with ethyl ether and intranasally infected with 10LD50 influenza A virus (A PR/8/34) in a volume of 50 μl PBS to induce viral pneumonia. […] Meanwhile, the control uninfected group and the control infected group were only given saline with the same volume. […] The adult daily dose was converted into the high dose of mice, which was about 40 mg/kg. Based on the high dose of the drug, the medium and low doses were set.
In the 3rd and 7th days after infection, the right lung lobes from each mouse were washed with normal saline and immediately soaked in 10% normal buffered formalin for one week. Then the samples were dehydrated with ethanol and embedded in paraffin. The 4-μm-thick lung sections were stained with HE and the pathological changes of lung tissue were observed under the light microscope.

[3] = system: TLR4, TLR7, MyD88 and NF-κB p65 protein expression; design: species or system ICR mice; conditions: mouse, in vivo
[4] = system: influenza A virus (A PR/8/34); assay: RT-PCR analysis of viral load in murine lung tissue; type: in vivo, ICR mice
Method: as §1
In the 3rd and 7th days after infection, the left lung lobes from each mouse were washed with normal saline and stored at -80°C for RT-PCR and western blot analysis use. For RT-PCR analysis, the left lung was homogenized in precooled normal saline and centrifuged at 4000 rpm for 10 min at 4 °C. Total RNA was extracted using the High Pure Viral Nucleic Acid kit and cDNA was synthesized with the PrimeScript™ RT Master Mix kit. The specific steps of RT-PCR amplification were the same as the previous section in the present study. The related primers for mouse were designed by Sangon Biotech, Co., Ltd. (Shanghai, China) and are described in Table S2 .

[5] = system: TLRs signaling pathway mRNA; type: cell-based, canine
influenza A virus [6] = assay: Viral load assay using real-time RT-PCR (M1 gene) and CPE in infected MDCK cells; type: cell-based, influenza virus A/PR8/34 (H1N1); conditions: 24 and 48 h after administration; for viral load in MDCK cells vs control infected group: each dose group, P < 0.01 or P < 0.05
[7] = system: IL-6, IFN-β and TNF-α levels; type: cell-based, canine
[8] = system: IL-1β, IL-6 and IL-10 in serum; type: in vivo, ICR mice; conditions: 3rd and 7th day after infection; for IL-10 in serum: P < 0.01; for IL-1β in serum: P < 0.01 or P < 0.05; for IL-6 in serum: P > 0.05
Method: as §1
In days 3 and 7 post-infection, blood samples of six mice from each group were collected from retroorbital sinus under mild ethyl ether anesthesia before they were sacrificed, then under 4 °C they were centrifuged at 3000 rpm for 20 min to obtain serum. The levels of IL-1β, IL-6 and IL-10 in murine serum were determined by ELISA kits.

influenza A virus [9] = conditions: dog
[10] = system: TNF-α, IFN-γ, TLR3, TLR4, TLR7, MyD88, NF-κB p65 and RIG-1 mRNA; design: species or system ICR mice; conditions: mouse, in vivo
influenza A virus [11] = assay: Antiviral activity assay in vitro with four ways of drug delivery (MTT, MDCK cells); type: cell-based, influenza virus A/PR8/34 (H1N1); conditions: for EC50: Influenza A virus, MDCK; for antiviral effective rate (ER): final concentration 3.91 μg/ml
[12] = 3rd day after infection, three doses, P < 0.01 or P < 0.05
[13] = 7th day after infection, 40 and 20 mg/kg groups, P < 0.05
[14] = drug delivery way: Blocking viruses invading host cells
[15] = drug delivery way: Directly inhibiting virus
[16] = drug delivery way: Inhibiting the biosynthesis of virus
[17] = drug delivery way: Intervening the adsorption of virus

CN[C@@H](C)[C@@H](O)c1ccccc1 [DPEP, D-pseudoephedrine]
viability at 0.49 µg/mL (influenza A virus [1]): 45.3% | viability at 0.98 µg/mL (influenza A virus [1]): 54.7% | viability at 1.95 µg/mL (influenza A virus [1]): 61.2% | viability at 3.91 µg/mL (influenza A virus [1]): 63.9% | viability at 7.81 µg/mL (influenza A virus [1]): 72.5% | histopathological responses of lung tissue [2]: attenuated the inflammation | inhibition effect on protein expression of TLR4 and TLR7 in lung tissue [3]: not obvious | protein expression levels of MyD88 and NF-κB p65 in lung tissue [3]: significantly down-regulated | protein expression levels of TLR4 and TLR7 in lung tissue [3]: Decreased | protein expression of TLR4, TLR7 and NF-κB p65 in comparison to oseltamivir [3]: dramatically inhibit | viral load in lung tissue vs control infected group [4, 12]: significantly decreased | viral load in lung tissue vs control infected group [4, 13]: significantly reduced | IFN-β mRNA expression compared with the oseltamivir group [5]: significantly increased | mRNA expression levels of MyD88, TRAF6 and TRAF3 [5]: obvious decreased | mRNA expression levels of NF-κB p65, TRAF3 and IRF3 compared with the oseltamivir group [5]: significantly reduced | mRNA expression levels of TLR7, NF-κB p65, TLR3 and IRF3 [5]: significantly reduced | mRNA expression levels of TRAF6 and TLR4 [5]: reduced | mRNA expression of IFN-β [5]: significantly increased | mRNA expression of MyD88 and TRAF3 [5]: significant decreased | mRNA expression of TLR4 [5]: significant decreased | CPE of infected MDCK cells (influenza A virus [6]): significantly reduce the CPE | viral load in MDCK cells vs control infected group (influenza A virus [6]): significantly decreased | IL-6 level in cell supernatant vs control infected group [7]: significantly higher than that in the control infected group | level of IFN-β in cell supernatant vs control infected group [7]: significantly increase; also recorded: increased | secretion of TNF-α vs control infected group [7]: significantly inhibited the secretion of TNF-α | IL-10 in serum [8]: accelerated the production of IL-10 | IL-1β in serum [8]: dramatically inhibited the production of IL-1β | IL-6 in serum [8]: slightly increased | cell viability rate (influenza A virus [9]): ≥ 70% | mRNA expression levels of TLR3, TLR4, TLR7, MyD88, NF-κB p65 and RIG-1 in lung tissue [10]: obviously inhibited | mRNA expression of IFN-γ in lung tissue [10]: significantly promoted | mRNA expression of TNF-α in lung tissue [10]: markedly inhibited | EC50 (influenza A virus [11]; [14]): 8.17 µg/mL (≈ 49.4 µM) | EC50 (influenza A virus [11]; [15]): 6.04 µg/mL (≈ 36.6 µM) | EC50 (influenza A virus [11]; [16]): 4.67 µg/mL (≈ 28.3 µM) | EC50 (influenza A virus [11]; [17]): 7.57 µg/mL (≈ 45.8 µM) | antiviral effective rate (ER) (influenza A virus [11]): more than 38.00%

CN[C@@H](C)[C@H](O)c1ccccc1 [LEP, L-ephedrine]
viability at 0.49 µg/mL (influenza A virus [1]): 42.6% | viability at 0.98 µg/mL (influenza A virus [1]): 51.6% | viability at 1.95 µg/mL (influenza A virus [1]): 57.8% | viability at 3.91 µg/mL (influenza A virus [1]): 61.5% | viability at 7.81 µg/mL (influenza A virus [1]): 67.2% | histopathological responses of lung tissue [2]: attenuated the inflammation | inhibition effect on protein expression of TLR4 and TLR7 in lung tissue [3]: not obvious | protein expression levels of MyD88 and NF-κB p65 in lung tissue [3]: significantly down-regulated | protein expression levels of TLR4 and TLR7 in lung tissue [3]: Decreased | protein expression of TLR4, TLR7 and NF-κB p65 in comparison to oseltamivir [3]: dramatically inhibit | viral load in lung tissue vs control infected group [4, 12]: significantly decreased | viral load in lung tissue vs control infected group [4, 13]: significantly reduced | mRNA expression levels of TLR4 and TRAF3 [5]: inhibited | mRNA expression levels of TLR7, NF-κB p65, TLR3 and IRF3 [5]: significantly reduced | mRNA expression of IFN-β [5]: significantly increased | mRNA expression of MyD88 and TRAF6 [5]: marked decreased | mRNA expression of TLR4 and MyD88 [5]: significantly inhibited | mRNA expression of TRAF6 and TRAF3 [5]: decreased | CPE of infected MDCK cells (influenza A virus [6]): significantly reduce the CPE | viral load in MDCK cells vs control infected group (influenza A virus [6]): significantly decreased | IL-6 level in cell supernatant vs control infected group [7]: significantly higher than that in the control infected group | level of IFN-β in cell supernatant vs control infected group [7]: significantly increase; also recorded: increased | secretion of TNF-α vs control infected group [7]: significantly inhibited the secretion of TNF-α | IL-10 in serum [8]: accelerated the production of IL-10 | IL-1β in serum [8]: dramatically inhibited the production of IL-1β | IL-6 in serum [8]: slightly increased | cell viability rate (influenza A virus [9]): ≥ 70% | mRNA expression levels of TLR3, TLR4, TLR7, MyD88, NF-κB p65 and RIG-1 in lung tissue [10]: obviously inhibited | mRNA expression of IFN-γ in lung tissue [10]: significantly promoted | mRNA expression of TNF-α in lung tissue [10]: markedly inhibited | EC50 (influenza A virus [11]; [14]): 11 µg/mL (≈ 66.3 µM) | EC50 (influenza A virus [11]; [15]): 6.28 µg/mL (≈ 38 µM) | EC50 (influenza A virus [11]; [16]): 5.66 µg/mL (≈ 34.3 µM) | EC50 (influenza A virus [11]; [17]): 7.15 µg/mL (≈ 43.3 µM) | antiviral effective rate (ER) (influenza A virus [11]): > 36.00%
